Results from article PMC2656767 (The Journal of organic chemistry, 2009).

What was measured:
[1] = tested on: wild type (ATCC 90027) C. albicans; assay: Modified disk diffusion assay, wild type C. albicans; format: cell-based, Candida albicans; conditions: wild type strain, loads of 1-5 μg/disk
[2] = tested on: amphotericin B resistant C. albicans (ATCC 200955); assay: Modified disk diffusion assay, amphotericin B resistant C. albicans; format: cell-based; conditions: amphotericin B-resistant strain, loads of 1-5 μg/disk

## Theopapuamide A [compound 7]
[1]
  antifungal activity (in words): activity
[2]
  antifungal activity (in words): activity
